The term pIC50 denotes the negative decadic logarithm of the IC50, by convention in mol/L.

Results on three compounds are retold here after patent US9023789B2, “Amylin analogs and pharmaceutical compositions thereof” (Novo Nordisk A/S, priority 2012, dated 2015).

pIC50: −log10 of the molar value. In brackets after ≈: the same amount, converted by molar mass. Like-named read-outs stand apart in the source and are kept apart here. Numbered stars: 1 amine (or outer) side, 2 acyl side, 3 side chain; on linkers, the order of the positions; unused ones are H or OH. Bridge positions count the residues as written; N and C are the ends. Side chains are listed from the residue outwards. Peptide text beside a SMILES is read from it. * marks the point of attachment. C20 diacid = O=C(O)CCCCCCCCCCCCCCCCCCC(=O)*; γGlu = O=C(O)[C@H](CCC(=O)[*:2])N[*:1]

Series [1] in a line: ASSAY (IV) determination of solubility. The format is physicochemical. In outline:
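Polypeptide stock in water ([…]) was mixed 1:1 with 100 mM buffers: glycylglycine at pH 3.0, 4.0, 5.0 and bistrispropane at pH 6.0, 6.5, 7.0, 7.5, 8.0. After 18 hours at room temperature, samples were centrifuged and polypeptide concentration measured by UPLC.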

The target of series [2] is T1, human amylin receptor (membranes from Amylin 3(a)/CRE-luc cells) (Homo sapiens, UniProt O60896+P30988).
T1 construct: expressed in transfected cells
T1 sequence (P30988 25-474): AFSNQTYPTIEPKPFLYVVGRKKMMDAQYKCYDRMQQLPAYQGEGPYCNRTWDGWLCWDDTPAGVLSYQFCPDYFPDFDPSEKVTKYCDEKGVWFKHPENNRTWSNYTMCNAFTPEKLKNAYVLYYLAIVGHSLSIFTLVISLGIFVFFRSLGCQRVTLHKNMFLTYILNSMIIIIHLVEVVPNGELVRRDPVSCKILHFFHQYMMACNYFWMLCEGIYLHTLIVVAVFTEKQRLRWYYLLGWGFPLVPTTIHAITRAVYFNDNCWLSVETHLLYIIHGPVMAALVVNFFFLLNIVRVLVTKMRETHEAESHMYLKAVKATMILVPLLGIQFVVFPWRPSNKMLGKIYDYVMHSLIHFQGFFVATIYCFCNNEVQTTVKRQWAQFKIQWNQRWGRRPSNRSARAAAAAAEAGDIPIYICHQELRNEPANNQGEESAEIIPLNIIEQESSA
T1 sequence (O60896 24-148 partner): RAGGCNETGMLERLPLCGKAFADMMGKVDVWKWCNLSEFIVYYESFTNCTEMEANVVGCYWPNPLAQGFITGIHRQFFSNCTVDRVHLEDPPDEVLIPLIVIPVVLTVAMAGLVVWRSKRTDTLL
The experiment in a line: ASSAY (V) binding to the human amylin receptor (SPA, 125I-rat amylin).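 On all read-outs here: competition binding of cell membranes (35 ng/µL) mixed with SPA beads in 384-well plates at 40 µL total volume, read by scintillation counting.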 The conditions noted are these: for pIC50: Table 4, read-out: hAmylin-R bind IC50.

A further series addresses T2, rat calcitonin receptor (Rattus norvegicus, UniProt P32214).
T2 construct: expressed in transfected cells; host or cells: BHK tk'ts 13 (transient, FuGENE 6), membranes
T2 sequence (P32214 25-479 isoform P32214-2 limits assumed): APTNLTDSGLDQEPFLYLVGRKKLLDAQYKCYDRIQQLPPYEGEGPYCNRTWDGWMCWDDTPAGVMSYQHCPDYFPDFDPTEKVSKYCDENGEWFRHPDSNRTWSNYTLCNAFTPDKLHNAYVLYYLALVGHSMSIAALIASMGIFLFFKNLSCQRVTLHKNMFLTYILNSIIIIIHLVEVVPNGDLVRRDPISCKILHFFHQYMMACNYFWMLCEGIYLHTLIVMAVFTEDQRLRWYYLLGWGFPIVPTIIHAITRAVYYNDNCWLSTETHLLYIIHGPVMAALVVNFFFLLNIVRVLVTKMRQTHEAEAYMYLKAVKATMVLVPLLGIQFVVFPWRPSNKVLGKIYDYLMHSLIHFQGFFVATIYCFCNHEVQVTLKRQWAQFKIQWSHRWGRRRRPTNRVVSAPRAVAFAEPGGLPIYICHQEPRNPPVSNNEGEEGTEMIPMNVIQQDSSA
The experiment in a line: ASSAY (VIII) binding to the rat calcitonin receptor. The conditions noted are these: Table 7, read-out: rCTR bind IC50. In outline: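 Transfect BHK tk′ts 13 cells transiently with rat calcitonin receptor, culture in DMEM containing 10% FBS, collect cells about 48 hours later, then prepare membranes.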

Where [3] appears, read: bistrispropane buffer, pH 6.5, read-out: Solubility pH 6.5 Concentration.
The mark [4] stands for this setting: bistrispropane buffer, pH 7.5, read-out: Solubility pH 7.5 Concentration.
[5] abbreviates: bistrispropane buffer, pH 6.0, read-out: Solubility pH 6.0 Concentration.
Setting [6] is: bistrispropane buffer, pH 7.0, read-out: Solubility pH 7.0 Concentration.
[7] abbreviates: bistrispropane buffer, pH 8.0, read-out: Solubility pH 8.0 Concentration.
[8] abbreviates: glycylglycine buffer, pH 3.0, read-out: Solubility pH 3.0 Concentration.
[9] abbreviates: glycylglycine buffer, pH 4.0, read-out: Solubility pH 4.0 Concentration.
Where [10] appears, read: glycylglycine buffer, pH 5.0, read-out: Solubility pH 5.0 Concentration.
Where [11] appears, read: Table 5, selectivity, hCTR bind IC50 / hAmylin-R bind IC50.
[12] abbreviates: Table 5a, selectivity, hCTR bind IC50 / hAmylin-R bind IC50.
Setting [13] is: Table 7, human binding selectivity, included for comparison.
Setting [14] is: Table 7a (preferred compounds), human binding selectivity, included for comparison.
Setting [15] is: ratio of human calcitonin receptor binding IC50 to human amylin receptor binding IC50.

Take `CC[C@H](C)[C@H](NC(=O)[C@H](C)NC(=O)CNC(=O)[C@H](Cc1ccccc1)NC(=O)[C@H](CC(N)=O)NC(=O)[C@@H]1CCCN1C(=O)[C@H](CO)NC(=O)[C@H](CO)NC(=O)[C@H](Cc1c[nH]cn1)NC(=O)[C@H](CCCNC(=N)N)NC(=O)[C@H](CC(C)C)NC(=O)[C@H](Cc1ccccc1)NC(=O)[C@H](CCC(=O)O)NC(=O)[C@H](C)NC(=O)[C@H](CC(C)C)NC(=O)[C@H](CCCNC(=N)N)NC(=O)[C@H](CCC(N)=O)NC(=O)[C@@H](NC(=O)[C@H](C)NC(=O)[C@@H]1CSSC[C@H](NC(=O)[C@@H](N)CCCCNC(=O)CC[C@H](NC(=O)CCCCCCCCCCCCCCCCCCC(=O)O)C(=O)O)C(=O)N[C@@H](CC(N)=O)C(=O)N[C@@H]([C@@H](C)O)C(=O)N[C@@H](C)C(=O)N[C@@H]([C@@H](C)O)C(=O)N1)[C@@H](C)O)C(=O)N1CCC[C@H]1C(=O)N[C@@H](CO)C(=O)N[C@@H](CO)C(=O)N[C@H](C(=O)N[C@@H](CC(N)=O)C(=O)N[C@H](C(=O)NCC(=O)N[C@@H](Cc1c[nH]cn1)C(=O)N[C@@H](CCC(=O)O)C(=O)N[C@H](C(=O)N[C@@H](Cc1ccc(O)cc1)C(N)=O)[C@@H](C)O)C(C)C)[C@@H](C)O` [Example 107] (H-K([γGlu-C20 diacid])CNTATCATQRLAEFLRHSSPNFGAIPSSTNVGHETY-NH2; disulfide 2-7 (inferred)): the solubility at 18 h in series [1] (setting [3]), in series [1] (setting [4]), in series [1] (setting [5]), in series [1] (setting [6]), in series [1] (setting [7]) and in series [1] (setting [8]) was not below 200 µM throughout. The solubility at 18 h in series [1] (setting [9]) and in series [1] (setting [10]) was not below 200 µM each time. The figures for the pIC50 (in series [2]; on rat calcitonin receptor) were 9.41 and 7.48, respectively. Further, the “Ratio hCT/hAmylin binding” value in series [2] (setting [11]), in series [2] (setting [12]), in series [2] (setting [13]), in series [2] (setting [14]) and in series [2] (setting [15]) was 11.1 in each case.
Take `CC[C@H](C)[C@H](NC(=O)[C@H](C)NC(=O)CNC(=O)[C@H](Cc1ccccc1)NC(=O)[C@H](CC(N)=O)NC(=O)[C@@H]1CCCN1C(=O)[C@H](CO)NC(=O)[C@H](CO)NC(=O)[C@H](Cc1c[nH]cn1)NC(=O)[C@H](CCCNC(=N)N)NC(=O)[C@H](CC(C)C)NC(=O)[C@H](Cc1ccccc1)NC(=O)[C@H](CCC(=O)O)NC(=O)[C@H](C)NC(=O)[C@H](CC(C)C)NC(=O)[C@H](CCCNC(=N)N)NC(=O)[C@H](CCC(N)=O)NC(=O)[C@@H](NC(=O)[C@H](C)NC(=O)[C@@H]1CSSC[C@H](NC(=O)[C@H](CCCCN)NC(=O)CC[C@H](NC(=O)CCCCCCCCCCCCCCCCCCC(=O)O)C(=O)O)C(=O)N[C@@H](CC(N)=O)C(=O)N[C@@H]([C@@H](C)O)C(=O)N[C@@H](C)C(=O)N[C@@H]([C@@H](C)O)C(=O)N1)[C@@H](C)O)C(=O)N1CCC[C@H]1C(=O)N[C@@H](CO)C(=O)N[C@@H](CO)C(=O)N[C@H](C(=O)N[C@@H](CC(N)=O)C(=O)N[C@H](C(=O)NCC(=O)N[C@@H](CO)C(=O)N[C@@H](Cc1c[nH]cn1)C(=O)N[C@H](C(=O)N[C@@H](Cc1ccc(O)cc1)C(N)=O)[C@@H](C)O)C(C)C)[C@@H](C)O` [Example 18] ({C20 diacid-γGlu}-KCNTATCATQRLAEFLRHSSPNFGAIPSSTNVGSHTY-NH2; disulfide 2-7): the solubility at 18 h in series [1] (setting [3]) is not below 200 µM; in series [1] (setting [4]) it was 122 µM (≈ 539 µg/mL); in series [1] (setting [5]), not below 200 µM; in series [1] (setting [6]), 177 µM (≈ 782 µg/mL); in series [1] (setting [7]), 111 µM (≈ 491 µg/mL); in series [1] (setting [8]), not below 200 µM. Further, the solubility at 18 h in series [1] (setting [9]) and in series [1] (setting [10]) was not below 200 µM throughout. Also, the results for the negative logarithm of the IC50 (pIC50) (in series [2]; on rat calcitonin receptor) were 9.26 and 7.89, respectively. Moreover, the “Ratio hCT/hAmylin binding” value in series [2] (setting [11]), in series [2] (setting [13]) and in series [2] (setting [14]) was 9.2 throughout.
For the compound `CC[C@H](C)[C@H](NC(=O)[C@H](C)NC(=O)CNC(=O)[C@H](Cc1ccccc1)NC(=O)[C@H](CC(N)=O)NC(=O)[C@@H]1CCCN1C(=O)[C@H](CO)NC(=O)[C@H](CO)NC(=O)[C@H](Cc1c[nH]cn1)NC(=O)[C@H](CCCNC(=N)N)NC(=O)[C@H](CC(C)C)NC(=O)[C@H](Cc1ccccc1)NC(=O)[C@H](CC(N)=O)NC(=O)[C@H](C)NC(=O)[C@H](CC(C)C)NC(=O)[C@H](CCCNC(=N)N)NC(=O)[C@H](CCC(N)=O)NC(=O)[C@@H](NC(=O)[C@H](C)NC(=O)[C@@H]1CSSC[C@H](NC(=O)[C@H](CCCCN)NC(=O)CC[C@H](NC(=O)CCCCCCCCCCCCCCCCCCC(=O)O)C(=O)O)C(=O)N[C@@H](CC(N)=O)C(=O)N[C@@H]([C@@H](C)O)C(=O)N[C@@H](C)C(=O)N[C@@H]([C@@H](C)O)C(=O)N1)[C@@H](C)O)C(=O)N1CCC[C@H]1C(=O)N[C@@H](CO)C(=O)N[C@@H](CO)C(=O)N[C@H](C(=O)N[C@@H](CC(N)=O)C(=O)N[C@H](C(=O)NCC(=O)N[C@@H](CO)C(=O)N[C@@H](CCC(=O)O)C(=O)N[C@H](C(=O)N[C@@H](Cc1ccc(O)cc1)C(N)=O)[C@@H](C)O)C(C)C)[C@@H](C)O` [Example 23], the solubility at 18 h in series [1] (setting [3]), in series [1] (setting [4]), in series [1] (setting [5]), in series [1] (setting [6]), in series [1] (setting [7]) and in series [1] (setting [8]) was not below 200 µM each time. For the same compound, the solubility at 18 h in series [1] (setting [9]) and in series [1] (setting [10]) was not below 200 µM each time. For the same compound, the “Ratio hCT/hAmylin binding” value in series [2] (setting [11]) worked out at 25.0; in series [2] (setting [12]) it was 25.0; in series [2] (Table 5b, selectivity, hCTR bind IC50 / hAmylin-R bind IC50) it was 25.0; in series [2] (Table 5c, selectivity, hCTR bind IC50 / hAmylin-R bind IC50), 25.0; in series [2] (setting [13]) it was 25.0; in series [2] (setting [14]), 25.0. The “Ratio hCT/hAmylin binding” value in series [2] (setting [15]) is listed as 25.0. On rat calcitonin receptor, the pIC50 is 7.10.
